Patent US20260001928A1 (CORTERIA PHARMACEUTICALS, priority 2022, published 2026)
*1 amine or outer side, *2 acyl side, *3 side chain or, on linkers, in order; H or OH if unused. Where a SMILES comes first, the peptide text is derived from it. Side-chain parts run from the residue outwards. [ ]: non-standard residue; d: D form. The star is where a group is joined. C20 diacid = O=C(O)CCCCCCCCCCCCCCCCCCC(=O)*; γGlu = O=C(O)[C@H](CCC(=O)[*:2])N[*:1]; AEEA = NCCOCCOCC(=O)O; Aib = CC(C)(N)C(=O)O

What was measured:
Type in all cases: cell-based
CFR1R receptor = target: T1, CFR1R receptor (Homo sapiens, UniProt P34998); assay: Activity at anti-target CFR1R receptor, cAMP assay in CRF1R-overexpression CHO-K1 cells; details: 100% = Sauvagine at 100 nM; for EC50: cAMP
T1 construct: host or cells: CHO-K1 (clone 2)
T1 sequence (P34998 24-415): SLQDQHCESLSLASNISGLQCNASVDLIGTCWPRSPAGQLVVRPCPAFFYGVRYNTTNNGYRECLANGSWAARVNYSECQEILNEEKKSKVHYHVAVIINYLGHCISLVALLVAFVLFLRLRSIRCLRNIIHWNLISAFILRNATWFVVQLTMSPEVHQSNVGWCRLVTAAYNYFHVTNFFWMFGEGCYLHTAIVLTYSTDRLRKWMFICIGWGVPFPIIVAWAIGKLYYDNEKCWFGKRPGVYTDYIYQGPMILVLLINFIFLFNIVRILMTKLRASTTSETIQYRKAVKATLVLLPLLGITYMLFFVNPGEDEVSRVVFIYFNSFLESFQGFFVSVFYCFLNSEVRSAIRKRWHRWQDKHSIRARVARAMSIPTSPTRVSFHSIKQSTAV
In short: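 Uses frozen stocks of CHO-K1 clone 2 cells overexpressing human CRF1R, plated at 4000 cells/well final, with cAMP measured by the same protocol as the TeloHAEC line. Full-activation control: 100 nM Sauvagine.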

rat CRF2 a = target: T2, rat CRF2 a (Rattus norvegicus, UniProt P47866); assay: Activity at rat CRF2 a, cAMP assay in A7R5 rat aortic smooth muscle cells; details: 0% HSA, 100% = Sauvagine at 100 nM
T2 construct: host or cells: A7R5 rat aortic smooth muscle cells
Experimental: The A7R5 rat aortic smooth muscle cell line used in this study was purchased from ATCC.
Cells were grown in a 10 cm dish at 37° C./5% CO2 in medium (DMEM/10% FBS) to near confluence. At that stage, cells were harvested, resuspended to 10 million/mL in culture medium and with 5% DMSO. 1 mL vial aliquots were slowly frozen to −80° C. in isopropanol and then transferred in liquid nitrogen for storage.
These vials were used to run the experiment following the procedure reported in the previous paragraph, except for the compound used in the control well to define the 100% activation (Sauvagine at 100 nM) and the cell density (final cell density: 5000 cells/well).

human CRF2a receptor = target: T3, human CRF2a receptor (Homo sapiens, UniProt Q13324); assay: Activity at human CRF2a receptor, cAMP functional assay in TeloHEAC cells; details: TeloHEAC cells stably expressing human CRF2a receptor, relative to urocortin 2 (100 nM = 100%)
T3 construct: expressed in transfected cells; host or cells: TeloHEAC cells
T3 sequence (Q13324 1-411): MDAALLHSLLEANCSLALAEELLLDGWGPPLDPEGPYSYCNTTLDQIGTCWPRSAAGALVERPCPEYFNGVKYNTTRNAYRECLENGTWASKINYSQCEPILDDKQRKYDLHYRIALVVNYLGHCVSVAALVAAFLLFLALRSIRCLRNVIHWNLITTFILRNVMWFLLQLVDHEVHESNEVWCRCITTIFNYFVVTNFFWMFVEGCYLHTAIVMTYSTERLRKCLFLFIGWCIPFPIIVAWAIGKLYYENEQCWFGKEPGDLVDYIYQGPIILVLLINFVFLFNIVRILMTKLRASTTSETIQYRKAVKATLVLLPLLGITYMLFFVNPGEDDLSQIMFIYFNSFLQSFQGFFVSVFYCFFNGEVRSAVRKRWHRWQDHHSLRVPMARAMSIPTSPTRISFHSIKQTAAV
In short: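 cAMP accumulation was measured by HTRF 665/620 nm ratio after 30 min at 37° C compound exposure (16 twofold dilutions) of CRF2a-expressing TeloHEAC cells, 10000/well, in HEPES-buffered HBSS plus IBMX. Activity was normalised to urocortin 2 at 100 nM (100%), and EC50 was the concentration giving half-maximal activation.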

T2 sequence (P47866 27-431 isoform P47866-2 limits assumed): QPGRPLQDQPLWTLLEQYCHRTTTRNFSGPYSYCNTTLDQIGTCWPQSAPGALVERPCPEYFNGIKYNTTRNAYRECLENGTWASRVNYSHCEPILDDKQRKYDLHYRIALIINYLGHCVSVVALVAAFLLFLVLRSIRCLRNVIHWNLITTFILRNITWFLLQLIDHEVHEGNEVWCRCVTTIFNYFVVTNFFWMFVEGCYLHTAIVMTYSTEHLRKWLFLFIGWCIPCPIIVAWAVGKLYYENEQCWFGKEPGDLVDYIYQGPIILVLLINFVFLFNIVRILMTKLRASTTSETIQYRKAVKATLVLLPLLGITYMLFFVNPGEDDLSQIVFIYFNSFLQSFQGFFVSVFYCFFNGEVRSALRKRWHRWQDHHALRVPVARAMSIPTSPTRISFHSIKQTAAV

| Structure (SMILES) | Emax (% I) (CFR1R receptor) | EC50 (CFR1R receptor) [nM] | EC50 (rat CRF2 a) [nM] | EC50 (human CRF2a receptor) [nM] |
| --- | --- | --- | --- | --- |
| CC[C@H](C)[C@H](NC(C)=O)C(=O)N[C@H](C(=O)N[C@@H](CC(C)C)C(=O)N[C@@H](CO)C(=O)N[C@@H](CC(C)C)C(=O)N[C@@H](CC(=O)O)C(=O)N[C@@H](C(=O)N1CCC[C@H]1C(=O)N[C@H](C(=O)N[C@@H](CCCCN)C(=O)N[C@@H](CC(C)C)C(=O)N[C@@H](CCCCNC(=O)CC[C@H](NC(=O)CC[C@H](NC(=O)CCCCCCCCCCCCCCCCCCC(=O)O)C(=O)O)C(=O)O)C(=O)N[C@@H](CCCCN)C(=O)N[C@H](C(=O)N[C@@H](CC(C)C)C(=O)N[C@@H](CC(C)C)C(=O)N[C@@H](CCC(=O)O)C(=O)N[C@@H](CCC(N)=O)C(=O)N[C@@H](CCC(=O)O)C(=O)N[C@@H](CCCCN)C(=O)N[C@@H](CCC(N)=O)C(=O)N[C@@H](CCCCN)C(=O)N[C@@H](CCCCN)C(=O)N[C@@H](CCC(N)=O)C(=O)N[C@@H](CCCNC(=N)N)C(=O)N[C@@H](CCC(=O)O)C(=O)N[C@@H](CCC(N)=O)C(=O)N[C@@H](C)C(=O)N[C@@H](CCC(=O)O)C(=O)N[C@H](C(=O)N[C@@H](CC(N)=O)C(=O)NC(C)(C)C(=O)N[C@@H](CCC(N)=O)C(=O)N[C@H](C(=O)N[C@@H](CC(C)C)C(=O)N[C@@H](C)C(=O)N[C@@H](CCC(N)=O)C(=O)N[C@H](C(N)=O)C(C)C)[C@@H](C)CC)[C@@H](C)O)[C@@H](C)CC)[C@@H](C)CC)C(C)C)C(C)C [compound 243] (Ac-IVLSLD[dV]PIKLK([γGlu-γGlu-C20 diacid])KILLEQEKQKKQREQAETN[Aib]QILAQV-NH2) | 8 | > 250 | 0.09 | 0.13 |
| CC[C@H](C)[C@H](NC(C)=O)C(=O)N[C@H](C(=O)N[C@@H](CC(C)C)C(=O)N[C@@H](CO)C(=O)N[C@@H](CC(C)C)C(=O)N[C@@H](CC(=O)O)C(=O)N[C@@H](C(=O)N1CCC[C@H]1C(=O)N[C@H](C(=O)N[C@@H](CCCCN)C(=O)N[C@@H](CC(C)C)C(=O)N[C@@H](CCCCNC(=O)COCCOCCNC(=O)COCCOCCNC(=O)CC[C@H](NC(=O)CCCCCCCCCCCCCCCCCCC(=O)O)C(=O)O)C(=O)N[C@@H](CCCCN)C(=O)N[C@H](C(=O)N[C@@H](CC(C)C)C(=O)N[C@@H](CC(C)C)C(=O)N[C@@H](CCC(=O)O)C(=O)N[C@@H](CCC(N)=O)C(=O)N[C@@H](CCC(=O)O)C(=O)N[C@@H](CCCCN)C(=O)N[C@@H](CCC(N)=O)C(=O)N[C@@H](CCCCN)C(=O)N[C@@H](CCCCN)C(=O)N[C@@H](CCC(N)=O)C(=O)N[C@@H](CCCNC(=N)N)C(=O)N[C@@H](CCC(=O)O)C(=O)N[C@@H](CCC(N)=O)C(=O)N[C@@H](C)C(=O)N[C@@H](CCC(=O)O)C(=O)N[C@H](C(=O)N[C@@H](CC(N)=O)C(=O)NC(C)(C)C(=O)N[C@@H](CCC(N)=O)C(=O)N[C@H](C(=O)N[C@@H](CC(C)C)C(=O)N[C@@H](C)C(=O)N[C@@H](CCC(N)=O)C(=O)N[C@H](C(N)=O)C(C)C)[C@@H](C)CC)[C@@H](C)O)[C@@H](C)CC)[C@@H](C)CC)C(C)C)C(C)C [compound 238] (Ac-IVLSLD[dV]PIKLK([AEEA-AEEA-γGlu-C20 diacid])KILLEQEKQKKQREQAETN[Aib]QILAQV-NH2) | 12 | > 250 | 0.09 | 0.11 |
